Measured values published in patent publication US20240309014A1, “MACROCYCLIC COMPOUNDS AND USES THEREOF” (President and Fellows of Harvard College, priority 2017, published 2024).

Test system: α-SMA expression in BJ normal human fibroblasts
Experiment: α-SMA expression in BJ fibroblasts co-cultivated with FaDu cells
Format: cell-based
Conditions: BJ cells co-cultured with FaDu for three days
Protocol: FIG. 19A. BJ cells (normal human […] fibroblasts) were co-cultured with FaDu cells for three days in the absence (vehicle) or presence of A83-01, a potent selective TGF-β-R inhibitor, and the expression of α-SMA was analysed by immunofluorescence staining (red color). Samples were also stained with anti-pan-human cytokeratin (green color) for cancer cell staining and DAPI (blue color) for nuclear staining. FIGS. 19B-19E BJ cells were treated with Compound (1) (0.15 nmol/L in immunofluorescence staining data and indicated concentrations in western blot analysis data) and TGF-β for 2 days. FIGS. 19B-19E. Samples were stained with the indicated antibody (red color) and DAPI (blue color) for nuclear staining. FIG. 19E Western blot images and quantification of the images. […] FIGS. 19G and 19E BJ cells were pretreated with defactinib (1 μmol/L) and TGF-β for 2 days. The lens magnification used was x4 (FIGS. 19A, 19B, 19C, 19G, and 19H) or x40 (FIGS. 19D and 19E).
The expression of α-SMA was induced in BJ normal human fibroblasts upon co-cultivation with FaDu cells, and the expression was attenuated by treatment with A83-01, a potent selective inhibitor of the TGF-β-receptor (FIG. 19A).

`Cc1cccc(-c2nn(C(=S)Nc3ccccc3)cc2-c2ccnc3ccccc23)n1` [Compound A83-01] was tested, and the “expression of α-SMA induced upon co-cultivation with FaDu cells” value was “attenuated”.
